Test results reported in patent publication US6004790A, “Cyclomaltodextrin glucanotransferase variants” (priority 1995, dated 1999).

Columns and labels:
Assay in all cases: Kinetic studies of β-cyclodextrin forming activity on Paselli SA2 with and without β-cyclodextrin (product inhibition)
Assay type in all cases: biochemical
[1] = biological target: T1, Bacillus circulans Strain 251 CGTase variant W616A/W662A (Niallia circulans, UniProt P43379, W643A/W689A)
T1 construct: a high extracellular production of wild-type enzyme and CGTase variants was obtained reproducibly; made in house; host or cells: Bacillus subtilis Strain DB104A (plasmid pDP66K)
T1 sequence (P43379 28-713 W643A/W689A): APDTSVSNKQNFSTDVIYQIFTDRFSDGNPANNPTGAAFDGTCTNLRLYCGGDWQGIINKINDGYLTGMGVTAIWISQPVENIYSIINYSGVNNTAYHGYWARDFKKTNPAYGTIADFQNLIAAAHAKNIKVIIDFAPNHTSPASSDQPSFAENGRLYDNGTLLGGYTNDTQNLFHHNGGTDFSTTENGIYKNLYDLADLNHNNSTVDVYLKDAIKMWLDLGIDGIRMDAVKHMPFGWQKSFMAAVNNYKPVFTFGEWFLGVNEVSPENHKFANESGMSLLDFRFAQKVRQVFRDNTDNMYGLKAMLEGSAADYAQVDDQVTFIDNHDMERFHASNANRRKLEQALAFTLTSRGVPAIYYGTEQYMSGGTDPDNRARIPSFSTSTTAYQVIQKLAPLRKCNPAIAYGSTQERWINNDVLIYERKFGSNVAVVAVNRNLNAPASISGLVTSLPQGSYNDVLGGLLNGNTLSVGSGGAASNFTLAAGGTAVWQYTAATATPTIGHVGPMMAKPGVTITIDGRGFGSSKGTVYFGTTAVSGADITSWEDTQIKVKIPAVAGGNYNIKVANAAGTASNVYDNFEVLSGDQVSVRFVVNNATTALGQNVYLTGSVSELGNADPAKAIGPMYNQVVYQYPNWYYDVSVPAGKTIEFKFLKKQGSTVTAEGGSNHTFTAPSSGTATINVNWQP
Method: (§1) β-cyclodextrin Forming Activity: β-cyclodextrin forming activity was determined using 5% Paselli™ SA2 (i.e. partially hydrolysed potato starch with an average degree of polymerization of 50, available from AVEBE, Foxhol, The Netherlands) as substrate and after incubation for 3 minutes at 50° C. 0.1-0.1 units of activity were used. The β-cyclodextrin formed was determined based on its ability to form a stable colorless inclusion complex with phenolphthalein. One unit of activity is defined as the amount of enzyme able to form 1 μmol of β-cyclodextrin per minute.
(§2) Kinetic Studies: Kinetic studies on Paselli™ SA2 (AVEBE, Foxhol, The Netherlands) were performed by determination of the β-cyclodextrin forming activity of the enzyme on Paselli™ concentrations ranging from 0 to 5%, with and without addition of 0.1 or 0.2 mM of β-cyclodextrin. In these experiments approx. 0.6 μg/ml (0.15-0.18 units) of enzyme was used.
(§3) The data collected from these kinetic and binding studies were fitted using the Hill equation, yielding Ymax and K50 values for the binding studies, and Vmax and K50 values for the kinetic studies. Ki values were calculated as follows. [formula] Results

[2] = biological target: T2, Bacillus circulans Strain 251 CGTase variant Y633A (Niallia circulans, UniProt P43379, Y660A)
T2 construct: a high extracellular production of wild-type enzyme and CGTase variants was obtained reproducibly; made in house; host or cells: Bacillus subtilis Strain DB104A (plasmid pDP66K)
T2 sequence (P43379 28-713 Y660A): as the sequence (P43379 28-713 W643A/W689A) above, with A616W, Y633A, A662W counted along it
Method: as §1, §2, §3

[3] = biological target: T3, Bacillus circulans Strain 251 CGTase (cyclomaltodextrin glucanotransferase), wild type, SEQ ID NO: 70 (Niallia circulans, UniProt P43379); conditions: inhibition by β-cyclodextrin (0.1 or 0.2 mM), substrate 0-5% Paselli SA2, 50° C., Hill equation fit
T3 construct: a high extracellular production of wild-type enzyme and CGTase variants was obtained reproducibly; made in house; host or cells: Bacillus subtilis Strain DB104A (plasmid pDP66K)
T3 sequence (P43379 28-713): as the sequence (P43379 28-713 W643A/W689A) above, with A616W, A662W counted along it
Method: as §1, §2, §3

Q: For `OC[C@H]1O[C@@H]2O[C@H]3[C@H](O)[C@@H](O)[C@@H](O[C@H]4[C@H](O)[C@@H](O)[C@@H](O[C@H]5[C@H](O)[C@@H](O)[C@@H](O[C@H]6[C@H](O)[C@@H](O)[C@@H](O[C@H]7[C@H](O)[C@@H](O)[C@@H](O[C@H]8[C@H](O)[C@@H](O)[C@@H](O[C@H]1[C@H](O)[C@H]2O)O[C@@H]8CO)O[C@@H]7CO)O[C@@H]6CO)O[C@@H]5CO)O[C@@H]4CO)O[C@@H]3CO` [β-cyclodextrin], which Ki [1] is on record?
A: 1110 µM

Q: What about the Ki [2] of the same compound?
A: 210 µM

Q: And the Ki [3]?
A: 380 µM
